How the values were obtained:
giant foxtail [1] = test: Test B preemergence/postemergence greenhouse plant response rating 0 to 10; assay type: in vivo, Setaria faberii; conditions: for Plant response rating, Giant foxtail: 0 to 10 scale
Outline: (§1)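 Postemergence treatment of plants two to eighteen cm tall ran alongside preemergence treatment of planted seed, each using compound in a non-phytotoxic solvent.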

chickweed = test: Test C preemergence/postemergence greenhouse plant response rating 0 to 100; assay type: in vivo, Stellaria media; conditions: for Plant response rating, Chickweed: 0 to 100 scale
Outline: (§2)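 Compounds in non-phytotoxic solvent applied preemergence to sandy loam one day after planting, postemergence at the 1–4 leaf stage, or to ~2.5 cm floodwater over silt loam.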

cocklebur = test: Test B preemergence/postemergence greenhouse plant response rating 0 to 10; assay type: in vivo, Xanthium pensylvanicum; conditions: for Plant response rating, Cocklebur: 0 to 10 scale
Outline: as §1

rice = test: Test C flood test plant response rating 0 to 100; assay type: in vivo, Oryza sativa; conditions: for Plant response rating Rice Japonica: flood test species listed under POSTEMERGENCE, 0 to 100 scale
Outline: as §2

soybean = test: Test C preemergence/postemergence greenhouse plant response rating 0 to 100; assay type: in vivo, Glycine max; conditions: for Plant response rating, Soybean: 0 to 100 scale
Outline: as §2

downy brome = test: as above; assay type: in vivo, Bromus tectorum; conditions: for Plant response rating Downy Brome: 0 to 100 scale
Outline: as §2

lambsquarters = test: Test B preemergence/postemergence greenhouse plant response rating 0 to 10; assay type: in vivo, Chenopodium album; conditions: for Plant response rating, Lambsquarter: 0 to 10 scale
Outline: as §1

umbrella sedge = test: Test C flood test plant response rating 0 to 100; assay type: in vivo, Cyperus difformis; conditions: for Plant response rating Umbrella sedge: flood test species listed under POSTEMERGENCE, 0 to 100 scale
Outline: as §2

barnyardgrass [2] = test: Test C flood test plant response rating 0 to 100; assay type: in vivo, Echinochloa crus-galli; conditions: for Plant response rating Barnyardgrass 2: flood test species listed under POSTEMERGENCE, 0 to 100 scale
Outline: as §2

rape = test: Test C preemergence/postemergence greenhouse plant response rating 0 to 100; assay type: in vivo, Brassica napus; conditions: for Plant response rating, Rape: 0 to 100 scale
Outline: as §2

purple nutsedge = test: Test B preemergence/postemergence greenhouse plant response rating 0 to 10; assay type: in vivo, Cyperus rotundus; conditions: for Plant response rating, Nutsedge: 0 to 10 scale
Outline: as §1

wild oat [3] = test: as above; assay type: in vivo, Avena fatua; conditions: for Plant response rating, Wild oat: 0 to 10 scale
Outline: as §1

cotton = test: Test C preemergence/postemergence greenhouse plant response rating 0 to 100; assay type: in vivo, Gossypium hirsutum; conditions: for Plant response rating, Cotton: 0 to 100 scale
Outline: as §2

barnyardgrass [4] = test: Test B preemergence/postemergence greenhouse plant response rating 0 to 10; assay type: in vivo, Echinochloa crus-galli; conditions: for Plant response rating, Barnyardgrass: 0 to 10 scale
Outline: as §1

wild oat [5] = test: Test C preemergence/postemergence greenhouse plant response rating 0 to 100; assay type: in vivo, Avena fatua; conditions: for Plant response rating, Wild oat: 0 to 100 scale
Outline: as §2

crabgrass = test: Test B preemergence/postemergence greenhouse plant response rating 0 to 10; assay type: in vivo, Digitaria spp.; conditions: for Plant response rating, Crabgrass: 0 to 10 scale
Outline: as §1

giant foxtail [6] = test: Test C preemergence/postemergence greenhouse plant response rating 0 to 100; assay type: in vivo, Setaria faberii; conditions: for Plant response rating, Giant foxtail: 0 to 100 scale
Outline: as §2

wild buckwheat = test: Test B preemergence/postemergence greenhouse plant response rating 0 to 10; assay type: in vivo, Polygonum convolvulus; conditions: for Plant response rating, Wild buckwheat: 0 to 10 scale
Outline: as §1

[7] = POSTEMERGENCE section, flood test, Rate 4 g/ha
[8] = Rate 16 g/ha, under POSTEMERGENCE head (flood test species)

C#CC(C)Oc1cc(-c2nn3c(c2Br)CCCC3)c(F)cc1Cl (centres unmarked) [Compound 66]
Plant response rating, Giant foxtail (giant foxtail [1]; POSTEMERGENCE, Rate 50 g/ha): 7
Plant response rating, Giant foxtail (giant foxtail [1]; PREEMERGENCE, Rate 50 g/ha): 0
Plant response rating (0 to 10 scale), Giant foxtail (giant foxtail [1]; PREEMERGENCE, Rate 200 g/ha): 6
Plant response rating, Giant foxtail (giant foxtail [1]; Rate 200 g/ha, POSTEMERGENCE): 6
Plant response rating, Chickweed (chickweed; POSTEMERGENCE, 62 g/ha): 95
Plant response rating, Chickweed (chickweed; POSTEMERGENCE, 250 g/ha): 100
Plant response rating (0 to 100), Chickweed (chickweed; POSTEMERGENCE, Rate 4 g/ha): 30
Plant response rating, Chickweed (chickweed; PREEMERGENCE, 62 g/ha): 50
Plant response rating, Chickweed (chickweed; PREEMERGENCE, 250 g/ha): 80
Plant response rating (0 to 100), Chickweed (chickweed; PREEMERGENCE, Rate 4 g/ha): 0
Plant response rating (0 to 100), Chickweed (chickweed; Rate 16 g/ha, POSTEMERGENCE): 70
Plant response rating (0 to 100), Chickweed (chickweed; Rate 16 g/ha, PREEMERGENCE): 0
Plant response rating, Cocklebur (cocklebur; POSTEMERGENCE, Rate 50 g/ha): 9
Plant response rating, Cocklebur (cocklebur; PREEMERGENCE, Rate 50 g/ha): 0
Plant response rating (0 to 10 scale), Cocklebur (cocklebur; PREEMERGENCE, Rate 200 g/ha): 0
Plant response rating, Cocklebur (cocklebur; Rate 200 g/ha, POSTEMERGENCE): 10
Plant response rating (0 to 100), Rice Japonica (rice; [7]): 0
Plant response rating (0 to 100), Rice Japonica (rice; [8]): 0
Plant response rating Rice Japonica (rice; 62 g/ha): 10
Plant response rating Rice Japonica (rice; 250 g/ha): 25
Plant response rating, Soybean (soybean; POSTEMERGENCE, 62 g/ha): 60
Plant response rating, Soybean (soybean; POSTEMERGENCE, 250 g/ha): 70
Plant response rating (0 to 100), Soybean (soybean; POSTEMERGENCE, Rate 4 g/ha): 20
Plant response rating, Soybean (soybean; PREEMERGENCE, 250 g/ha): 20
Plant response rating (0 to 100), Soybean (soybean; PREEMERGENCE, Rate 4 g/ha): 0
Plant response rating (0 to 100), Soybean (soybean; Rate 16 g/ha, POSTEMERGENCE): 50
Plant response rating (0 to 100), Soybean (soybean; Rate 16 g/ha, PREEMERGENCE): 0
Plant response rating Downy Brome (downy brome; POSTEMERGENCE, 62 g/ha): 60
Plant response rating Downy Brome (downy brome; POSTEMERGENCE, 250 g/ha): 80
Plant response rating (0 to 100), Downy Brome (downy brome; POSTEMERGENCE, Rate 4 g/ha): 20
Plant response rating Downy Brome (downy brome; PREEMERGENCE, 62 g/ha): 30
Plant response rating Downy Brome (downy brome; PREEMERGENCE, 250 g/ha): 70
Plant response rating (0 to 100), Downy Brome (downy brome; PREEMERGENCE, Rate 4 g/ha): 0
Plant response rating (0 to 100), Downy Brome (downy brome; Rate 16 g/ha, POSTEMERGENCE): 40
Plant response rating (0 to 100), Downy Brome (downy brome; Rate 16 g/ha, PREEMERGENCE): 0
Plant response rating, Lambsquarter (lambsquarters; POSTEMERGENCE, Rate 50 g/ha): 10
Plant response rating, Lambsquarter (lambsquarters; PREEMERGENCE, Rate 50 g/ha): 9
Plant response rating (0 to 10 scale), Lambsquarter (lambsquarters; PREEMERGENCE, Rate 200 g/ha): 10
Plant response rating, Lambsquarter (lambsquarters; Rate 200 g/ha, POSTEMERGENCE): 10
Plant response rating (0 to 100), Umbrella sedge (umbrella sedge; [7]): 0
Plant response rating (0 to 100), Umbrella sedge (umbrella sedge; [8]): 0
Plant response rating Umbrella sedge (umbrella sedge; 62 g/ha): 0
Plant response rating Umbrella sedge (umbrella sedge; 250 g/ha): 80
Plant response rating (0 to 100), Barnyardgrass 2 (barnyardgrass [2]; [7]): 10
Plant response rating (0 to 100), Barnyardgrass 2 (barnyardgrass [2]; [8]): 90
Plant response rating Barnyardgrass 2 (barnyardgrass [2]; 62 g/ha): 100
Plant response rating Barnyardgrass 2 (barnyardgrass [2]; 250 g/ha): 100
Plant response rating, Rape (rape; POSTEMERGENCE, 62 g/ha): 100
Plant response rating, Rape (rape; POSTEMERGENCE, 250 g/ha): 100
Plant response rating (0 to 100), Rape (rape; POSTEMERGENCE, Rate 4 g/ha): 40
Plant response rating, Rape (rape; PREEMERGENCE, 62 g/ha): 20
Plant response rating, Rape (rape; PREEMERGENCE, 250 g/ha): 30
Plant response rating (0 to 100), Rape (rape; PREEMERGENCE, Rate 4 g/ha): 0
Plant response rating (0 to 100), Rape (rape; Rate 16 g/ha, POSTEMERGENCE): 60
Plant response rating (0 to 100), Rape (rape; Rate 16 g/ha, PREEMERGENCE): 0
Plant response rating, Nutsedge (purple nutsedge; POSTEMERGENCE, Rate 50 g/ha): 2
Plant response rating, Nutsedge (purple nutsedge; PREEMERGENCE, Rate 50 g/ha): 0
Plant response rating (0 to 10 scale), Nutsedge (purple nutsedge; PREEMERGENCE, Rate 200 g/ha): 0
Plant response rating, Nutsedge (purple nutsedge; Rate 200 g/ha, POSTEMERGENCE): 2
Plant response rating, Wild oat (wild oat [3]; POSTEMERGENCE, Rate 50 g/ha): 5
Plant response rating, Wild oat (wild oat [3]; PREEMERGENCE, Rate 50 g/ha): 2
Plant response rating (0 to 10 scale), Wild oat (wild oat [3]; PREEMERGENCE, Rate 200 g/ha): 5
Plant response rating, Wild oat (wild oat [3]; Rate 200 g/ha, POSTEMERGENCE): 6
Plant response rating, Cotton (cotton; POSTEMERGENCE, 62 g/ha): 100
Plant response rating, Cotton (cotton; POSTEMERGENCE, 250 g/ha): 100
Plant response rating (0 to 100), Cotton (cotton; POSTEMERGENCE, Rate 4 g/ha): 70
Plant response rating, Cotton (cotton; PREEMERGENCE, 62 g/ha): 40
Plant response rating, Cotton (cotton; PREEMERGENCE, 250 g/ha): 90
Plant response rating (0 to 100), Cotton (cotton; PREEMERGENCE, Rate 4 g/ha): 0
Plant response rating (0 to 100), Cotton (cotton; Rate 16 g/ha, POSTEMERGENCE): 85
Plant response rating (0 to 100), Cotton (cotton; Rate 16 g/ha, PREEMERGENCE): 0
Plant response rating, Barnyardgrass (barnyardgrass [4]; POSTEMERGENCE, Rate 50 g/ha): 5
Plant response rating, Barnyardgrass (barnyardgrass [4]; PREEMERGENCE, Rate 50 g/ha): 0
Plant response rating (0 to 10 scale), Barnyardgrass (barnyardgrass [4]; PREEMERGENCE, Rate 200 g/ha): 7
Plant response rating, Barnyardgrass (barnyardgrass [4]; Rate 200 g/ha, POSTEMERGENCE): 9
Plant response rating, Wild oat (wild oat [5]; POSTEMERGENCE, 62 g/ha): 50
Plant response rating, Wild oat (wild oat [5]; POSTEMERGENCE, 250 g/ha): 60
Plant response rating (0 to 100), Wild oat (wild oat [5]; POSTEMERGENCE, Rate 4 g/ha): 10
Plant response rating, Wild oat (wild oat [5]; PREEMERGENCE, 250 g/ha): 30
Plant response rating (0 to 100), Wild oat (wild oat [5]; PREEMERGENCE, Rate 4 g/ha): 0
Plant response rating (0 to 100), Wild oat (wild oat [5]; Rate 16 g/ha, POSTEMERGENCE): 20
Plant response rating (0 to 100), Wild oat (wild oat [5]; Rate 16 g/ha, PREEMERGENCE): 0
Plant response rating, Crabgrass (crabgrass; POSTEMERGENCE, Rate 50 g/ha): 4
Plant response rating, Crabgrass (crabgrass; PREEMERGENCE, Rate 50 g/ha): 0
Plant response rating (0 to 10 scale), Crabgrass (crabgrass; PREEMERGENCE, Rate 200 g/ha): 3
Plant response rating, Crabgrass (crabgrass; Rate 200 g/ha, POSTEMERGENCE): 5
Plant response rating, Giant foxtail (giant foxtail [6]; POSTEMERGENCE, 62 g/ha): 70
Plant response rating, Giant foxtail (giant foxtail [6]; POSTEMERGENCE, 250 g/ha): 90
Plant response rating (0 to 100), Giant foxtail (giant foxtail [6]; POSTEMERGENCE, Rate 4 g/ha): 30
Plant response rating, Giant foxtail (giant foxtail [6]; PREEMERGENCE, 62 g/ha): 20
Plant response rating, Giant foxtail (giant foxtail [6]; PREEMERGENCE, 250 g/ha): 100
Plant response rating (0 to 100), Giant foxtail (giant foxtail [6]; PREEMERGENCE, Rate 4 g/ha): 0
Plant response rating (0 to 100), Giant foxtail (giant foxtail [6]; Rate 16 g/ha, POSTEMERGENCE): 50
Plant response rating (0 to 100), Giant foxtail (giant foxtail [6]; Rate 16 g/ha, PREEMERGENCE): 0
Plant response rating, Wild buckwheat (wild buckwheat; POSTEMERGENCE, Rate 50 g/ha): 10
Plant response rating, Wild buckwheat (wild buckwheat; PREEMERGENCE, Rate 50 g/ha): 4
Plant response rating (0 to 10 scale), Wild buckwheat (wild buckwheat; PREEMERGENCE, Rate 200 g/ha): 10
Plant response rating, Wild buckwheat (wild buckwheat; Rate 200 g/ha, POSTEMERGENCE): 10

From patent US6358885B1, “Substituted phenylheterocyclic herbicides” (Mississippi State University, priority 1992, dated 2002)
